Measurements published in patent US12653191B2, “Active compound combinations” (Bayer Aktiengesellschaft, priority 2020, dated 2026).
“And” between values parts separate entries of the source, which are not always exact repeats. Equal values may be shown once.

Columns and labels:
[1] = system: Ustilago segetum var. avenae; assay: in vitro-Test with fungal microorganisms, Method A (tables I1-I5); assay type: cell-based; settings: alone
Protocol: (§1) Example: In Vitro-Test with Fungal Microorganisms
(§2) Wells of 96-well microtiter plates are filled with 10 μl of a preparation of test compound or compound combination in methanol+emulsifier alkylaryl-polyglycol-ether. Thereafter, the solvent is evaporated in a hood. At the next step, 100 μl of liquid potato dextrose medium is given into each well, that has been amended with an appropriate concentration of spores or mycelium suspension of the test fungus.
(§3) With the aid of a photometer, the extinction in all wells is measured at the wavelength of 620 nm.
(§4) The microtiter plates are incubated at 20° C. and 85% relative humidity. The inhibition of growth is determined again photometrically 3-5 days after the application. Efficacy is calculated in relation to the untreated control, 0% efficacy means fungal growth as high as in untreated control while 100% efficacy means no fungal growth is measured.
(§5) The data in tables A1 to A12, B1 to B14, C1 to C10, D1 to D8, E1 to E8, F1 to F11, G1 to G4, H1 to H4 and I1 to I5 were collected according to Method A. The data in tables A13 to A22, B15 to B18, C11 to C20, E9 to E16, F12 to F15, G5 to G15, H5 to H8, I6 to I11 and J1 to J11 were collected according to Method B.

Cordana musae [2] = assay: in vitro-Test with fungal microorganisms, Method B (tables E9-E16); assay type: cell-based; settings: for Efficacy: single active; for Efficacy %: single substance
Protocol: as §1
as §2, with “30” for “10”, “200” for “100”, “growth” for “potato dextrose”, “given,” for “given into each well,”
(§6) With the aid of a photometer, the extinction in all wells is measured at the wavelength of 600 nm.
(§7) The microtiter plates are incubated for 3 to 7 days at 20° C. and 85% relative humidity. After the incubation inhibition of growth is determined photometrically. Efficacy is calculated in relation to the untreated control, 0% efficacy means fungal growth as high as in untreated control while 100% efficacy means no fungal growth is measured.
as §5

Cordana musae [3] = assay: in vitro-Test with fungal microorganisms, Method A (tables E1-E8); assay type: cell-based
Protocol: as §1, §2, §3, §4, §5

Cercospora beticola [4] = assay: in vitro-Test with fungal microorganisms, Method A (tables C1-C10); assay type: cell-based
Protocol: as §1, §2, §3, §4, §5

Alternaria alternate = assay: in vitro-Test with fungal microorganisms, Method A (tables A1-A12); assay type: cell-based, Alternaria alternata; settings: applied alone
Protocol: as §1, §2, §3, §4, §5

Botrytis cinerea [5] = assay: in vitro-Test with fungal microorganisms, Method A (tables B1-B14); assay type: cell-based; settings: for Efficacy %: alone
Protocol: as §1, §2, §3, §4, §5

Alternaria alternata = assay: in vitro-Test with fungal microorganisms, Method B (tables A13-A22); assay type: cell-based; settings: single compound
Protocol: as §1
as §2, with “30” for “10”, “200” for “100”, “growth” for “potato dextrose”, “given,” for “given into each well,”
as §6, §7, §5

[6] = system: Colletotrichum lindemuthianum; assay: in vitro-Test with fungal microorganisms, Method A (tables D1-D8); assay type: cell-based
Protocol: as §1, §2, §3, §4, §5

Fusarium culmorum = assay: in vitro-Test with fungal microorganisms, Method B (tables G5-G15); assay type: cell-based
Protocol: as §1
as §2, with “30” for “10”, “200” for “100”, “growth” for “potato dextrose”, “given,” for “given into each well,”
as §6, §7, §5

Botrytis cinerea [7] = assay: in vitro-Test with fungal microorganisms, Method B (tables B15-B18); assay type: cell-based
Protocol: as §1
as §2, with “30” for “10”, “200” for “100”, “growth” for “potato dextrose”, “given,” for “given into each well,”
as §6, §7, §5

[8] = system: Ustilago segetum var. avenae; assay: in vitro-Test with fungal microorganisms, Method B (tables I6-I11); assay type: cell-based
Protocol: as §1
as §2, with “30” for “10”, “200” for “100”, “growth” for “potato dextrose”, “given,” for “given into each well,”
as §6, §7, §5

Diaporthe citri = assay: in vitro-Test with fungal microorganisms, Method A (tables F1-F11); assay type: cell-based; settings: applied alone
Protocol: as §1, §2, §3, §4, §5

Cercospora beticola [9] = assay: in vitro-Test with fungal microorganisms, Method B (tables C11-C20); assay type: cell-based
Protocol: as §1
as §2, with “30” for “10”, “200” for “100”, “growth” for “potato dextrose”, “given,” for “given into each well,”
as §6, §7, §5

Colletotrichum coccodes = assay: in vitro-Test with fungal microorganisms, Method B (tables J1-J11); assay type: cell-based
Protocol: as §1
as §2, with “30” for “10”, “200” for “100”, “growth” for “potato dextrose”, “given,” for “given into each well,”
as §6, §7, §5

[10] = single active compound, 0.04 ppm
[11] = single active compound, 0.2 ppm

CC(C)c1ccc(Cl)cc1CN(C(=O)c1c(C(F)F)nn(C)c1F)C1CC1 [(2.038) isoflucypram, isoflucypram]
Efficacy % ([1]; 0.008 ppm): 6% and 0% | Efficacy % ([1]; 0.2 ppm): 100% | Efficacy % ([1]; 1.0 ppm): 100% | Efficacy (Cordana musae [2]; 0.2 ppm): 9% | Efficacy (Cordana musae [2]; 1 ppm): 20% | Efficacy % (Cordana musae [3]; mixing partner alone, 0.008 ppm): 0% | Efficacy % (Cordana musae [3]; mixing partner alone, 0.04 ppm): 0% | Efficacy % (Cordana musae [3]; mixing partner alone, 0.2 ppm): 0% | Efficacy % (Cordana musae [3]; mixing partner alone, 1.0 ppm): 0% | Efficacy % (Cordana musae [3]; single substance, 0.008 ppm): 0% | Efficacy % (Cordana musae [3]; single substance, 0.04 ppm): 0% | Efficacy % (Cordana musae [3]; single substance, 0.2 ppm): 0% and 1% | Efficacy % (Cordana musae [3]; single substance, 1.0 ppm): 22% and 27% | Efficacy % (Cercospora beticola [4]; 0.008 ppm alone): 10% | Efficacy % (Cercospora beticola [4]; 0.04 ppm alone): 0% | Efficacy % (Cercospora beticola [4]; 0.2 ppm alone): 44% | Efficacy % (Cercospora beticola [4]; 1.0 ppm alone): 69% | Efficacy % (Alternaria alternate; 0.008 ppm): 43% and 52% | Efficacy % (Alternaria alternate; 0.04 ppm): 70% and 71% and 74% | Efficacy % (Alternaria alternate; 0.2 ppm): 77% and 85% and 83% | Efficacy % (Alternaria alternate; 1.0 ppm): 82% and 84% | Efficacy (Botrytis cinerea [5]; 1.0 ppm): 75% | Efficacy % (Botrytis cinerea [5]; 0.008 ppm): 5% | Efficacy % (Botrytis cinerea [5]; 0.04 ppm): 53% | Efficacy % (Botrytis cinerea [5]; 0.2 ppm): 58% | Efficacy % (Botrytis cinerea [5]; 1.0 ppm): 77% | Efficacy (Alternaria alternata; 0.008 ppm): 22% | Efficacy (Alternaria alternata; 1 ppm): 77% | Efficacy % ([6]; single active at 0.008 ppm): 0% | Efficacy % ([6]; single active at 0.04 ppm): 14% | Efficacy % ([6]; single active at 0.2 ppm): 0% | Efficacy % ([6]; single active at 1.0 ppm): 18% | Efficacy (Fusarium culmorum; 0.008 ppm alone): 0% | Efficacy (Fusarium culmorum; 0.04 ppm alone): 0% | Efficacy (Fusarium culmorum; 0.2 ppm alone): 10% | Efficacy (Fusarium culmorum; 1 ppm alone): 24% | Efficacy (Fusarium culmorum; [10]): 10% | Efficacy (Fusarium culmorum; [11]): 19% and 20% | Efficacy % (Botrytis cinerea [7]; 0.2 ppm alone): 53% | Efficacy % (Botrytis cinerea [7]; 1 ppm alone): 70% | Efficacy % ([8]; 0.008 ppm): 9% | Efficacy % ([8]; 0.04 ppm): 17% | Efficacy % ([8]; 0.2 ppm): 100% | Efficacy % ([8]; alone, 0.008 ppm): 2% | Efficacy % ([8]; alone, 0.04 ppm): 5% | Efficacy % ([8]; alone, 0.2 ppm): 100% | Efficacy (Diaporthe citri; 0.008 ppm): 0% | Efficacy (Diaporthe citri; 0.04 ppm): 0% | Efficacy (Diaporthe citri; 1.0 ppm): 30% and 38% | Efficacy % (Cercospora beticola [9]; 0.008 ppm): 8% | Efficacy % (Cercospora beticola [9]; 0.04 ppm): 14% | Efficacy % (Cercospora beticola [9]; 0.2 ppm): 16% | Efficacy % (Cercospora beticola [9]; 1 ppm): 44% | Efficacy % (Cercospora beticola [9]; single compound, 0.04 ppm): 14% and 13% | Efficacy % (Cercospora beticola [9]; single compound, 1 ppm): 40% and 35% | Efficacy % (Colletotrichum coccodes; 0.008 ppm): 0% | Efficacy % (Colletotrichum coccodes; 0.04 ppm): 46% | Efficacy % (Colletotrichum coccodes; 0.2 ppm): 8% | Efficacy % (Colletotrichum coccodes; 1 ppm): 0% | Efficacy % (Colletotrichum coccodes; single active compound at 0.04 ppm): 0% and 1%

Cn1cc(C(=O)Nc2ccc(F)cc2-c2ccc(Cl)c(Cl)c2)c(C(F)F)n1 [(2.002) bixafen, bixafen]
Efficacy % ([1]; 0.008 ppm): 0% | Efficacy % ([1]; 0.04 ppm): 0% | Efficacy % ([1]; 0.2 ppm): 100% | Efficacy % ([1]; 1.0 ppm): 100% | Efficacy (Cordana musae [2]; 0.008 ppm): 17% | Efficacy (Cordana musae [2]; 0.04 ppm): 0% | Efficacy (Cordana musae [2]; 0.2 ppm): 0% | Efficacy (Cordana musae [2]; 1 ppm): 2% | Efficacy % (Cordana musae [2]; 0.008 ppm): 0% | Efficacy % (Cordana musae [2]; 0.04 ppm): 0% | Efficacy % (Cordana musae [2]; 0.2 ppm): 0% | Efficacy % (Cordana musae [3]; single substance, 0.008 ppm): 0% and 8% | Efficacy % (Cordana musae [3]; single substance, 0.04 ppm): 2% and 0% | Efficacy % (Cordana musae [3]; single substance, 0.2 ppm): 0% | Efficacy % (Cordana musae [3]; single substance, 1.0 ppm): 0% | Efficacy % (Cercospora beticola [4]; 0.2 ppm): 0% | Efficacy % (Cercospora beticola [4]; 1.0 ppm): 0% | Efficacy % (Alternaria alternate; 0.008 ppm): 29% | Efficacy % (Alternaria alternate; 0.04 ppm): 23% | Efficacy % (Alternaria alternate; 0.2 ppm): 66% | Efficacy % (Alternaria alternate; 1.0 ppm): 46% | Efficacy (Botrytis cinerea [5]; 0.04 ppm): 22% | Efficacy (Botrytis cinerea [5]; 0.2 ppm): 63% | Efficacy (Botrytis cinerea [5]; 1.0 ppm): 67% | Efficacy (Alternaria alternata; 0.008 ppm): 13% and 23% | Efficacy (Alternaria alternata; 0.04 ppm): 67% | Efficacy (Alternaria alternata; 1 ppm): 59% and 85% | Efficacy % ([6]; single active at 0.008 ppm): 6% and 0% | Efficacy % ([6]; single active at 0.04 ppm): 0% | Efficacy % ([6]; single active at 0.2 ppm): 0% | Efficacy (Fusarium culmorum; 0.008 ppm alone): 2% | Efficacy (Fusarium culmorum; 0.04 ppm alone): 17% | Efficacy (Fusarium culmorum; single active compound, 0.008 ppm): 2% | Efficacy (Fusarium culmorum; [10]): 7% | Efficacy (Fusarium culmorum; [11]): 11% | Efficacy (Fusarium culmorum; single active compound, 1 ppm): 18% | Efficacy % (Botrytis cinerea [7]; alone, 0.008 ppm): 6% | Efficacy % (Botrytis cinerea [7]; alone, 0.2 ppm): 0% | Efficacy % (Botrytis cinerea [7]; alone, 1 ppm): 66% | Efficacy % ([8]; 0.2 ppm): 44% | Efficacy (Diaporthe citri; 0.2 ppm): 0% and 5% | Efficacy (Diaporthe citri; 1.0 ppm): 0% and 5% | Efficacy % (Cercospora beticola [9]; 1 ppm): 0% | Efficacy % (Cercospora beticola [9]; single compound, 0.2 ppm): 14% | Efficacy % (Cercospora beticola [9]; single compound, 1 ppm): 20% | Efficacy % (Colletotrichum coccodes; 0.008 ppm): 33% | Efficacy % (Colletotrichum coccodes; 0.04 ppm): 45% | Efficacy % (Colletotrichum coccodes; 0.2 ppm): 0% | Efficacy % (Colletotrichum coccodes; 1 ppm): 0% | Efficacy % (Colletotrichum coccodes; single active compound at 0.008 ppm): 30%
